Measurements from US9034863B2, “Compositions and methods for inhibiting entry of a hepatic virus” (The Board of Trustees of the University of Illinois, priority 2008, dated 2015).
Like-named read-outs stand apart in the source and are kept apart here.

Tests used:
HCVcc = test: HCV foci reduction assay, acute HCVcc infection of Huh7 cells; assay type: cell-based, Hepatitis C virus (HCV); conditions: for inhibition at 12.5 µM / inhibition at 25 µM: Hepatitis C virus, Huh-7, read-out: inhibition of HCV foci formation
HCVcc JFH-1 = test: Acute HCVcc infection of Huh7 cells, HCV RNA by RT-qPCR; assay type: cell-based, Hepatitis C virus (HCV)
Procedure: For experiments in growing cells, Huh7 cells were seeded 24 hours prior to use at 4×10^3 cells in each well of a 96-well plate (BD Biosciences, San Jose, Calif.). For experiments in non-growing cells, Huh7 cells were seeded in 96-well BIOCOAT culture plates (BD Biosciences) at a density of 8×10^3 cells/well in cDMEM. Upon reaching 90% confluence, media was replaced with 200 μl cDMEM supplemented with 1% (v/v) DMSO (Sigma), and cells were cultured for an additional 20 days, replacing medium every 2 days (Sainz, Jr. & Chisari (2006) J. Virol. 80:10253-7; Choi, et al. (2009) Xenobiotica 39:205-17). Cells were infected with HCVcc JFH-1 at an MOI of 1.0 or 0.1 FFU/cell for 12 hours. Cells were mock-treated or treated with increasing concentrations of ezetimibe 6 hours prior to infection (PRE), during the time of infection for 12 hours (CO), or immediately following infection for 60 hours (POST). For RT-qPCR analysis, total cellular RNA was extracted in 1× Nucleic Acid Purification Lysis Solution (Applied Biosystems, Foster City, Calif.) from triplicate wells at indicated times post infection. For HCV E2-positive foci assay analysis, medium was removed and cells were fixed with 4% paraformaldehyde (w/v) (Sigma) 72 hours post-infection and immunohistochemical staining for HCV E2 was performed as described herein.
Total cellular RNA was purified using an ABI PRISM™ 6100 Nucleic Acid PrepStation (Applied Biosystems), as per the manufacturer's instructions. One μg of purified RNA was used for cDNA synthesis using the TAQMAN reverse transcription reagents (Applied Biosystems), followed by SYBR green RT-qPCR using an Applied Biosystems 7300 real-time thermocycler (Applied Biosystems). […] HCV JFH-1 and human GAPDH RNA transcript levels were determined relative to a standard curve derived from serial dilutions of plasmid containing the JFH-1 HCV cDNA or the human GAPDH coding sequence, respectively. […]
Likewise dose-dependent and time-of-addition-dependent inhibition of HCV infection was observed when HCV RNA levels were quantified by RT-qPCR 24, 48 and 72 hours p.i.

Huh7 cells = test: Cell proliferation assay (cellular ATP, […] Plus); assay type: cell-based, human; conditions: increasing doses
From the text: The […] Plus Cell Proliferation assay kit (Lonza, Walkersville, Md.), which incorporates bioluminescent detection of cellular ATP as a measure of cell viability and proliferation, was used according to the manufacturer's instructions. Briefly, mock-treated and drug-treated cultures were lysed in Cell Lysis reagent for […]. One hundred μl of culture medium was transferred to white 96-well plates (BD Biosciences) containing ATP detection reagent and luminescence, expressed as relative light units (RLU), was measured (Fluostar OPTIMA). To assess drug-induced cellular toxicity, a bioluminescence-based assay (The TOXILIGHT BioAssay Kit, Lonza) that measures adenylate kinase (AK) released from damaged cells was used as per the manufacturer's instructions. […] One hundred μl of AK detection reagent was then added to each well, and luminescence (RLU) was measured (Fluostar OPTIMA).
(§1) To ensure that the inhibition observed was not due to ezetimibe-induced changes in cell proliferation or cytotoxicity, cellular ATP was measured as a read-out of Huh7 cell viability and proliferation and cellular toxicity by adenylate kinase release following treatment with increasing doses of ezetimibe. […] Furthermore, to test the specificity of the observed HCV inhibition, the effect of ezetimibe on entry of another flavivirus, Dengue virus (DNV), was assessed.

Dengue virus (DNV) = test: Dengue virus plaque formation; assay type: cell-based; conditions: 12.5 or 25 μM
Procedure: as §1

HCV = test: Prevention of HCV infection in mice with chimeric human livers; assay type: in vivo; conditions: 10 mg/kg/day oral gavage from ~7 days prior to infection
From the text: Alternatively, severe combined immunodeficient (SCID)/urokinase plasminogen activator (uPA) mice can be used. Mice are transplanted with primary human hepatocytes according to conventional methods (Azuma, et al. (2007) Nat. Biotechnol. 25:903-910; Bissig, et al. (2007) Proc. Natl. Acad. Sci. USA 104:20507-20511) and monitored for two months post-transplantation to assess repopulation efficiency by measuring human albumin serum levels. Using these models, mice can be assessed for the prevention of HCV infection or the inhibition of an already established infection.
Mice are injected with HCV positive human serum (of any HCV genotype) and HCV RNA serum levels are quantified daily and/or weekly to assess the efficacy with which the treatments reduces the amplification of HCV RNA levels. Evidence that ezetimibe reduces the amplification HCV levels in vivo, as compared to untreated animals, provides in vivo evidence that ezetimibe is an effective treatment for HCV in patients.

JFH-1 = test: Infectivity of intracellular virus from naringenin-treated cells; assay type: cell-based, Hepatitis C virus (HCV); conditions: standard cell-free infection of naïve Huh7-1 cells
Procedure: To determine the nature of the intracellular JFH-1 virion particles which are able to spread from cell-to-cell, even in the absence of secretion, the buoyant density of the accumulated, intracellular particles from naringenin-treated cells were analyzed on iodixanol gradients. It was observed that the peak of RNA from these cells was shifted towards the heavier fractions consistent with the intracellular particles in naringenin-treated cells being less lipidated. Infectivity of the intracellular virus from naringenin-treated cells was reduced by more than 95% in a standard cell-free virus infection of naïve Huh7-1 cells.

[1] = co-incubated with HCVcc for 12 h
[2] = pre-treatment 6 h prior to infection, compared to untreated cultures

Compound	inhibition at 12.5 µM (HCVcc; [1])	inhibition at 25 µM (HCVcc; [1])	inhibition at 12.5 µM (HCVcc; [2])	inhibition at 25 µM (HCVcc; [2])	degree of inhibition of HCV foci formation (HCVcc; added to cells post-infection)	inhibition of HCV infection (HCV RNA levels) (HCVcc JFH-1; addition post-infection, 72 hours p.i.)	inhibition of HCV infection (HCV RNA levels) (HCVcc JFH-1; co-treatment)	protection of cells from subsequent infection, duration (HCVcc JFH-1; pre-treatment with 25 μM for 6 hours before infection)	cell proliferation (cellular ATP) (Huh7 cells)	reduction in DNV plaque formation (Dengue virus (DNV))	establishment of HCV infection (serum HCV RNA) (HCV)	reduction of infectivity of intracellular virus (JFH-1)
O=C1[C@H](CC[C@H](O)c2ccc(F)cc2)[C@@H](c2ccc(O)cc2)N1c1ccc(F)cc1 [ezetimibe, 1-(4-fluorophenyl)-(3R)-[3-(4-fluorophenyl)-(3S)-hydroxypropyl]-(45)-(4-hydroxyphenyl)-2-azetidinone]	90%	99%	85%	95%	greatly reduced	ineffective	potently inhibited HCV infection	at least 48 hours	did not inhibit cell proliferation	no significant reduction	prevents the establishment of HCV infection	–
O=C1C[C@@H](c2ccc(O)cc2)Oc2cc(O)cc(O)c21 [naringenin]	–	–	–	–	–	–	–	–	–	–	–	more than 95%
